Experiments:
BMDC = experiment: FITC-dextran uptake (macropinocytosis) by BMDC; type: cell-based, C57BL/6 mice; conditions: LPS 50 ng/ml, FITC-dextran 1 mg/ml; Akt-i at 1 μM
Method: DCs were generated from the bone marrow or the spleen of C57BL/6 mice as previously described. Briefly, bone marrow cells were cultured for 7 days at 37°C, 5% (v/v) CO2 in complete RPMI medium supplemented with 10 ng/ml recombinant granulocyte–macrophage colony-stimulating factor (GM-CSF; Peprotech). Spleen cells were cultured for 14 days at 37°C, 5% CO2 in complete RPMI containing 10 ng/ml GM-CSF and 1 ng/ml TGFβ (transforming growth factor-β; R&D Systems). NIH3T3 cells (European Cell Culture Collection) were cultured in DMEM (Dulbecco's modified Eagle's medium) supplemented with glutamine, penicillin, streptomycin and 10% (v/v) calf serum (Invitrogen).
FITC-dextran uptake was measured as described. […] In some experiments, cells were pre-treated with 1 μM Akt-i (Merck) for 30 min. Cells were left unstimulated or were stimulated with 50 ng/ml LPS for 20 min at 37°C followed by the addition of 1 mg/ml FITC dextran (Invitrogen) for 10 min at 37°C. Cells were washed four times at 4°C in PBS supplemented with 2% (v/v) FCS (foetal calf serum) and then stained with APC (allophycocyanin)-labelled anti-CD11c antibody (BD biosciences). FITC dextran uptake was measured on an FACS Calibur (BD biosciences).

PLK1 = target: T1, PLK1 (Mus musculus, UniProt Q07832); experiment: Desthiobiotin-ATP probe capture on streptavidin beads, Western blot; type: binding, C57BL/6 mice; conditions: 10 μM inhibitor, DC lysate
T1 construct: endogenous in cells; host or cells: mouse spleen-derived dendritic cells (SDC), lysate
T1 sequence (Q07832 whole entry): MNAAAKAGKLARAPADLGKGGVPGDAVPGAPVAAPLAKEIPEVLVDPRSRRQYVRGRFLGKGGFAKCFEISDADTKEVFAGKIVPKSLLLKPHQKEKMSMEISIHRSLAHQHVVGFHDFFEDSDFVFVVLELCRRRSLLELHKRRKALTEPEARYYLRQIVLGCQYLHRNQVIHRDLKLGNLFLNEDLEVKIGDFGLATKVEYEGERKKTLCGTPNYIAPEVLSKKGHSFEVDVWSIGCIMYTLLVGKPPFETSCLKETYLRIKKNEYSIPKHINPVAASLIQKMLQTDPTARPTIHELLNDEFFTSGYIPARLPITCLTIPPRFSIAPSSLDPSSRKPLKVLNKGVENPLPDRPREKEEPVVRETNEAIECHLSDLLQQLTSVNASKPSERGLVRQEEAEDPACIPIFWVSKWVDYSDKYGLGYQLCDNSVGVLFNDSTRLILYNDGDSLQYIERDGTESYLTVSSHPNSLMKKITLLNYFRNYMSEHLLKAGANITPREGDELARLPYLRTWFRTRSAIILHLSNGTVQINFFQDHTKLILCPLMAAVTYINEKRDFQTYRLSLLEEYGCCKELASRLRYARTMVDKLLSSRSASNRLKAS
Method: (§1) SDC were cultured for at least 14 days in RPMI (without arginine and lysine, custom-made by Biosera) containing 10% dialysed FCS (Hyclone) supplemented with 84 mg/l of L-arginine (Sigma) and 40 mg/l L-lysine (Sigma) for the ‘light’ medium or 84 mg/l of L-arginine ^13C6 or ^13C10 and 40 mg/l L-lysine ^13C6 (Cambridge Isotope Laboratory) for the ‘heavy’ medium. Equal numbers (2×10^7) of ‘light’ or ‘heavy’ labelled SDCs were incubated in RPMI containing 0.5% FCS for 3 h in 15 cm dishes. The cells were lysed in the lysis buffer provided in the kit (Pierce). […] Labelling with the desthiobiotin ATP probe, and precipitation with streptavidin beads were performed according to the manufacturer's instructions (Pierce kinase enrichment kit or ActivX™). Equal amount of streptavidin precipitates were separated by electrophoresis as described above and probed with antibodies against Rsk2, Lok (Bethyl), Slk (Bethyl), PLK1 (Calbiochem), p38, Erk2 and Mst1 (from Cell Signaling).

Erk1/2 = target: T2, Erk1/2 (Mus musculus, UniProt P63085); experiment: as above; type: binding, C57BL/6 mice; conditions: 10 μM inhibitor, DC lysate
T2 construct: recovered on streptavidin beads following desthiobiotin-ATP labelling of DC lysates including Rsk2, Erk1/2 and p38; endogenous in cells; host or cells: mouse spleen-derived dendritic cells (SDC), lysate
T2 sequence (P63085 2-358): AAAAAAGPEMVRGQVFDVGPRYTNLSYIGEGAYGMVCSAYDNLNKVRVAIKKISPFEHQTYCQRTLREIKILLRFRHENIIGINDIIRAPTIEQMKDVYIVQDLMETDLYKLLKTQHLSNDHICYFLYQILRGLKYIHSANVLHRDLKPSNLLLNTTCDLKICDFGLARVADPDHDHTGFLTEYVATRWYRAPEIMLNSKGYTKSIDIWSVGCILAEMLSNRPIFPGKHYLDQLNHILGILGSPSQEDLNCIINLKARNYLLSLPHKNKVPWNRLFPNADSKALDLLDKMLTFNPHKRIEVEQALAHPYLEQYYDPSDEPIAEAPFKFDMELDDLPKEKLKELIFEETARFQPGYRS
Method: as §1, with “'light'” for “‘light’”, “L-arginine ^13C6” left out, “L-lysine ^13C6” left out, “'heavy'” for “‘heavy’”, “ActivXTM).” for “ActivX™). Equal amount of streptavidin precipitates were separated by electrophoresis as described above and probed with antibodies against Rsk2, Lok (Bethyl), Slk (Bethyl), PLK1 (Calbiochem), p38, Erk2 and Mst1 (from Cell Signaling).”

p38 = experiment: as above; type: binding, C57BL/6 mice; conditions: 10 μM inhibitor, DC lysate
Method: as §1, with “'light'” for “‘light’”, “L-arginine ^13C6” left out, “L-lysine ^13C6” left out, “'heavy'” for “‘heavy’”, “ActivXTM).” for “ActivX™). Equal amount of streptavidin precipitates were separated by electrophoresis as described above and probed with antibodies against Rsk2, Lok (Bethyl), Slk (Bethyl), PLK1 (Calbiochem), p38, Erk2 and Mst1 (from Cell Signaling).”

Rsk2 = target: T3, Rsk2 (Mus musculus, UniProt P18654); experiment: as above; type: binding, C57BL/6 mice; conditions: 10 μM inhibitor, DC lysate
T3 construct: recovered on streptavidin beads following desthiobiotin-ATP labelling of DC lysates including Rsk2, Erk1/2 and p38; endogenous in cells; host or cells: mouse spleen-derived dendritic cells (SDC), lysate
T3 sequence (P18654 whole entry): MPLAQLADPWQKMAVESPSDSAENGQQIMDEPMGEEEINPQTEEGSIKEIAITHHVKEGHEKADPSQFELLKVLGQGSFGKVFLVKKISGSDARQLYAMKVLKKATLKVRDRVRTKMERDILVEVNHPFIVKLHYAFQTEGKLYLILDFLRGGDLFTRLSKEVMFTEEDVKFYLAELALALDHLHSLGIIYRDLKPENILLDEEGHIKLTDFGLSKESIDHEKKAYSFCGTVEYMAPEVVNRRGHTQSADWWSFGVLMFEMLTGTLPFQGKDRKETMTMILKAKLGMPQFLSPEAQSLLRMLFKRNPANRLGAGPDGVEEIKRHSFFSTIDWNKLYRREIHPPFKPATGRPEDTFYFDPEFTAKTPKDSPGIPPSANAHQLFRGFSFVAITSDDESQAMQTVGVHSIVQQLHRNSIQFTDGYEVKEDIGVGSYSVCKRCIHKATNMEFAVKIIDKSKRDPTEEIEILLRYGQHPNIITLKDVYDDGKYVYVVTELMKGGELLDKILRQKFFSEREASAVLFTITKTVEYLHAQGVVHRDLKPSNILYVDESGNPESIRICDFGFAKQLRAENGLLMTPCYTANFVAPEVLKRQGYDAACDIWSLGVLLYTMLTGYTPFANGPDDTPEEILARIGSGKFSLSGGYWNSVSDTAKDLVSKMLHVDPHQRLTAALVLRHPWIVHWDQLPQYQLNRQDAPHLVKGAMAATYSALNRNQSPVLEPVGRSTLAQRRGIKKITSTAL

Rsks = conditions: cited from earlier work
GST-Lok = target: T4, GST-Lok (Homo sapiens, UniProt O94804); experiment: Kinase assay for recombinant Lok; type: biochemical; conditions: 25 μM ATP, 100 μM AXLTIDE substrate
T4 construct: GST; purchased DSTT
T4 sequence (O94804 whole entry): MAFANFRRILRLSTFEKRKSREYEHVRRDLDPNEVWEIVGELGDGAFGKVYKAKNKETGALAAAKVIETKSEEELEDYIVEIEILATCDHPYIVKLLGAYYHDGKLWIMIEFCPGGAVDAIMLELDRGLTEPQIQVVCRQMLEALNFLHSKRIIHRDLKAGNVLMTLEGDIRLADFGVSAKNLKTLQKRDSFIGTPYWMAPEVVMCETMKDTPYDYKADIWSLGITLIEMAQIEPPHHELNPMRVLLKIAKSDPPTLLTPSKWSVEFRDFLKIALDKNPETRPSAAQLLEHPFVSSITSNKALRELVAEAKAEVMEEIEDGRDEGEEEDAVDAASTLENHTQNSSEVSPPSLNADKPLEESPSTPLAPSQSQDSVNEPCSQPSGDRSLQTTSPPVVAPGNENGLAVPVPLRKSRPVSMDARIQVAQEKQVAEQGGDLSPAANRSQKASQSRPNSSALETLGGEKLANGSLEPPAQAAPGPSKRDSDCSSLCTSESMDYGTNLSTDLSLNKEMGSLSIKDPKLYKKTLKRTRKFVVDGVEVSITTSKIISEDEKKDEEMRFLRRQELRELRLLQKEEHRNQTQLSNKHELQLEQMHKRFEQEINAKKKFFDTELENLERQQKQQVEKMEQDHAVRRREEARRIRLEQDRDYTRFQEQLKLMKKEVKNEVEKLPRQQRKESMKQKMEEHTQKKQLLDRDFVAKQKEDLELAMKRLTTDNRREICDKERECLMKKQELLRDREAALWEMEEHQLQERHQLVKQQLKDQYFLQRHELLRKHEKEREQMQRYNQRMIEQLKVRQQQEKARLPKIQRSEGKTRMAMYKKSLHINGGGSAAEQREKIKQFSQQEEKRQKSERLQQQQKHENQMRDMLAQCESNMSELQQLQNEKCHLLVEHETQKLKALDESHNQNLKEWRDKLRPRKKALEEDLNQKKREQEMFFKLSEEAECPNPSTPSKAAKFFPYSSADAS
Method: The kinase reaction for Lok and Slk was supplemented with 12.5 mM sodium glycerophosphate and 0.25 mM sodium orthovanadate. The reactions were incubated for 15–20 min at 30°C then terminated and analysed as described previously [14].

NIH3T3 cells = experiment: Immunoblot of PKB phosphorylation in EGF-stimulated NIH3T3 cells; type: cell-based; conditions: EGF 100 ng/ml, 4 μM D1870
Method: BMDC (1.5×10^6 cells) were incubated in 6-well plates in RPMI supplemented with 0.3% FCS for 5 h at 37°C. […] NIH3T3 cells (2×10^4) were plated in 6-well plates for 48 h at 37°C. The cells were deprived of serum for 8 h in DMEM supplemented with 2 mg/ml BSA (Sigma) and then stimulated with 100 ng/ml EGF (epidermal growth factor; Peprotech) for 5 min at 37°C.
Cells were washed in cold PBS, lysed on ice for 10 min in lysis buffer (1% Triton X-100 containing 50 mM Tris–HCl (pH 7.5), 150 mM NaCl, 1 mM EGTA, 1 mM EDTA, 10 mM NaF, 1 mM sodium orthovanadate and 5 mM sodium pyrophosphate and protease inhibitors (Roche)) and centrifuged for 10 min at 20000 g at 4°C.

DC = experiment: Actin cytoskeleton organisation in DC (confocal microscopy); type: cell-based, C57BL/6 mice; conditions: 4 μM D1870 or 2 μM BIX, 1h30 at 37°C
Method: 2 μMBIXfor1h30at37◦ C. Cells were ﬁxed in 4 % (v/v) paraformalde-hyde for 15 min, permeabilized with 0.1 % Triton for 5 min and stained with phalloidin-Alexa 555 (Invitrogen) and anti-vinculin antibody (Sigma) followed by goat anti-mouse Alexa 488 antibody (invitrogen). Cells were analysed on a Zeiss700 confocal microscope. V inculin (green) and phal-loidin (red). Error bar 10 μm. Images are representative of three inde- […]
© 2014 The Author(s) This is an Open Access ar ticle distributed under the terms of the Creative Commons Attribution Licence (CC-BY) (http://creativecommons.org/licenses/by/3.0/)c which permits unrestricted use, distribution and reproduction in any medium, provided the original work is properly cited.
(1 picture or pasted object on this page, not shown here)

CC(C)CCN1c2nc(Nc3cc(F)c(O)c(F)c3)ncc2N(C)C(=O)C1C (stereo not drawn) [D1870, BI-D1870]
LPS-mediated dextran uptake (BMDC): completely blocked | Recovery of PLK1 on streptavidin beads (PLK1): blocked | capture of Erk1/2 on streptavidin beads (Erk1/2): not Erk1/2 or p38, was blocked | capture of p38 on streptavidin beads (p38): not Erk1/2 or p38, was blocked | capture of Rsk2 on streptavidin beads (Rsk2): blocked | IC50 (Rsks): 10 to 30 nM | IC50 (GST-Lok): 500 nM | PKB phosphorylation (NIH3T3 cells): not affected | morphological changes in resting DC (cell spreading, focal adhesion, loss of podosomes) (DC): induced morphological changes
